This is an account of results in ChEMBL document CHEMBL1201862, “PubChem BioAssay data set” (2004).

Several values for one entry are separate records, joined by “and”; a condition that tells them apart may be missing. Equal values may be shown once. Activity calls are given as the source filed them.

For series [1], the system named is Streptococcus sp. 'group A'. Description: Streptococcus pyogenes SK(-)GAS viability under kanamycin – luminescence, BacTiterGlo, confirmation, counter-screen for streptokinase expression inhibitor project, dose response (AID 1900). It is filed as functional, organism-based. For orientation: The purpose of a counterscreen is to sort out artefacts and off-target activity.

Series [2] relates to Streptococcus. Nature of the series: GAS UMAA2166 growth inhibition – luminescence, BacTiterGlo, counter-screen for streptokinase expression inhibitor project, dose response (AID 1915).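 Further: potency for reduction of bacterial viability or growth.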 It is filed as functional, organism-based.
Series [3] can be described thus: non-specific 3'UTR reporter inhibition in Clone20-Shn3RL – cell-based, Renilla luciferase, cherry-picked, counter-screen for Shn3 inhibitor project, dose response (AID 624133). The format is functional.
Series [4] can be described thus: reduction of Shn3 3'UTR-driven luciferase in osteoblasts – cell-based, Clone20 osteoblasts, firefly luciferase, cherry-picked, dose response (AID 624132).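 Further: firefly luciferase luminescence from reporter carrying the Shn3 3'UTR in osteoblasts.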 The format is functional.
A short description of series [5]: loss of viability in HepG2 cells – cell-based, CellTiter-Glo, cherry-picked, cytotoxicity control for Shn3 inhibitor project, dose response (AID 624134). It is filed as functional.
Series [6] addresses Cytochrome P450 3A4 (Homo sapiens, UniProt P08684).
Series [7] addresses Cytochrome P450 2D6 (Homo sapiens, UniProt P10635).
For series [8], the target named is Cytochrome P450 2C19 (Homo sapiens, UniProt P33261). Description: Cytochrome panel assay with activity outcomes. Panel member name: p450-cyp2c19 Compounds with AC50 equal or less than 10 uM are considered active. It is filed as functional.
Chain of Cytochrome P450 2C19 (P33261 whole entry): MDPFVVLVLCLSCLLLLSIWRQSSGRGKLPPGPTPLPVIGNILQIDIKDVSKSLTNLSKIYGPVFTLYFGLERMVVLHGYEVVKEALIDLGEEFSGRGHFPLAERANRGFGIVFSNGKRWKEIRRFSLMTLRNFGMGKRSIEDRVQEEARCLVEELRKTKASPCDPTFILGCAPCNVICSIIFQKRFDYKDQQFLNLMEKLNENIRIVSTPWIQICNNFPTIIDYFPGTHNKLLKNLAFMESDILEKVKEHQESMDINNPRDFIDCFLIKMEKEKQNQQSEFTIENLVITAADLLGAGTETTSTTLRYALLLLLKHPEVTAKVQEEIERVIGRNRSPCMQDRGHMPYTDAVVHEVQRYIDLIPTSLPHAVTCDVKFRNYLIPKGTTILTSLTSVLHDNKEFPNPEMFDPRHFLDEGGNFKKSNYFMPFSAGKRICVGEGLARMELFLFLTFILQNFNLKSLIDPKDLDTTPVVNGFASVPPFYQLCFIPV
For series [9], the target named is Cytochrome P450 2C9 (Homo sapiens, UniProt P11712).
Chain of Cytochrome P450 2C9 (P11712 whole entry): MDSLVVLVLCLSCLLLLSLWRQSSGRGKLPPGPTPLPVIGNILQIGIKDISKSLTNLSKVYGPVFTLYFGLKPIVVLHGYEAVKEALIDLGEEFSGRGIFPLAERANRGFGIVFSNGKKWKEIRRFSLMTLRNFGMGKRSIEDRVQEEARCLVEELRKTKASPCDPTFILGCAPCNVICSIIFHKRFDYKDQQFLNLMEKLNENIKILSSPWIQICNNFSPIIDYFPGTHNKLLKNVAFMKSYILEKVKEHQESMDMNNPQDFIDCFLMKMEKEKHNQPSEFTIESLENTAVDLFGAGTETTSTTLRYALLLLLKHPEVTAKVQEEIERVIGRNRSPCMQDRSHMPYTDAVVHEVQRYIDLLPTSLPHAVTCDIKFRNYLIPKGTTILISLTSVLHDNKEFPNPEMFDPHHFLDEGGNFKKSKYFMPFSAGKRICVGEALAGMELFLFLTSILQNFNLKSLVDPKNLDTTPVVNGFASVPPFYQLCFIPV
Series [10] can be described thus: viability of uninfected HEp-2 cells – cell-based, HTS, cytotoxicity control for RSV inhibitor project, dose response (AID 2410). It is filed as functional. As to conditions: human respiratory syncytial virus.
Series [11] has as its target T1, Rac GTPase-activating protein 1 (Homo sapiens, UniProt Q9H0H5).
T1 sequence (Q9H0H5 whole entry): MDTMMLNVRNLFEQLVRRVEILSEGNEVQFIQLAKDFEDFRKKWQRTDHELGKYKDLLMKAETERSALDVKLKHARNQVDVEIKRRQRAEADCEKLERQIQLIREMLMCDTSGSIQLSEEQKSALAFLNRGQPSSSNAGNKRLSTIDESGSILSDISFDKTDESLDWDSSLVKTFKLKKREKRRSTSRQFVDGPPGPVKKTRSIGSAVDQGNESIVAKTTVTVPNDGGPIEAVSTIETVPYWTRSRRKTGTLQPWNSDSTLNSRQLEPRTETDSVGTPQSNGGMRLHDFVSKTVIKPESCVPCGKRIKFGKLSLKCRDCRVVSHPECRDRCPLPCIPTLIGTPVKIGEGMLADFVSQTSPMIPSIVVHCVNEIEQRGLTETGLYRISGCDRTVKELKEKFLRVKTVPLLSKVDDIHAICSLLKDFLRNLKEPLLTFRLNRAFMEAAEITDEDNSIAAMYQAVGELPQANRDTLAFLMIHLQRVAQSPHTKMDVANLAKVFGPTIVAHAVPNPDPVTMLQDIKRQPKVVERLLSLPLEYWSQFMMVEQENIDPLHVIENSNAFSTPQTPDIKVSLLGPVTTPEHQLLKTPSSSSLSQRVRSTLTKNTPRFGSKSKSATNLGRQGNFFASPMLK
Description: blockers of MgcRacGAP-driven Rac1 GTP hydrolysis – biochemical, ADP Hunter fluorescence, primary and confirmatory, confirmation (AID 624330). The format is functional.

Series [12] can be described thus: Luminescence Cell-Based Dose Retest to Confirm Inhibitors of Cancer Stem Cells. [Related pubchem assays (depositor defined):AID2717, AID2721]. It is filed as functional. As to conditions: Homo sapiens.
Series [13] can be described thus: cells. It is filed as functional.
A short description of series [14]: NIH3T3 cell viability loss – ATP luminescence, mouse fibroblasts, counter-screen, dose response (AID 2010).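 Further: cells exposed to compound for about 90 hours before reading.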 The format is functional, cell-based.
The nature of series [15]: Trypanosoma cruzi growth suppression in host cells – NIH3T3 host cells, beta-gal luminescence, confirmation (AID 2044).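 Further: intracellular parasites grown in NIH/3T3 mouse fibroblasts as host cells; luminescent beta-galactosidase reporter signal from transgenic T. cruzi replicating inside host cells; inhibitors lower the luminescence signal.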 It is filed as functional, cell-based.

Chain of Cytochrome P450 3A4 (P08684 whole entry): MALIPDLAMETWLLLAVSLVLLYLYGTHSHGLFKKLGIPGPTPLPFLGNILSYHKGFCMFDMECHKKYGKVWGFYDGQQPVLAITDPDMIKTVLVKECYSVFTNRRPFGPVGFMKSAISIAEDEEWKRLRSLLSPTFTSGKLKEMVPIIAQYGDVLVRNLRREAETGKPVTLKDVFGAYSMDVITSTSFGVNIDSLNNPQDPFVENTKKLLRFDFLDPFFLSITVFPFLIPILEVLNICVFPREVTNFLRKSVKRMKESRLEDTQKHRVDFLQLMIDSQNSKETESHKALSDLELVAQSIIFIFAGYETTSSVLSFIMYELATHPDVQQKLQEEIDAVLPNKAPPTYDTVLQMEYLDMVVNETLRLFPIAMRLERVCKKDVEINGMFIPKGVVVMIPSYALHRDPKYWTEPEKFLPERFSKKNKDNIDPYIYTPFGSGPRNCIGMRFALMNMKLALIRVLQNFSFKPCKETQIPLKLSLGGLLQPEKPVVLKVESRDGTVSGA
Chain of Cytochrome P450 2D6 (P10635 whole entry): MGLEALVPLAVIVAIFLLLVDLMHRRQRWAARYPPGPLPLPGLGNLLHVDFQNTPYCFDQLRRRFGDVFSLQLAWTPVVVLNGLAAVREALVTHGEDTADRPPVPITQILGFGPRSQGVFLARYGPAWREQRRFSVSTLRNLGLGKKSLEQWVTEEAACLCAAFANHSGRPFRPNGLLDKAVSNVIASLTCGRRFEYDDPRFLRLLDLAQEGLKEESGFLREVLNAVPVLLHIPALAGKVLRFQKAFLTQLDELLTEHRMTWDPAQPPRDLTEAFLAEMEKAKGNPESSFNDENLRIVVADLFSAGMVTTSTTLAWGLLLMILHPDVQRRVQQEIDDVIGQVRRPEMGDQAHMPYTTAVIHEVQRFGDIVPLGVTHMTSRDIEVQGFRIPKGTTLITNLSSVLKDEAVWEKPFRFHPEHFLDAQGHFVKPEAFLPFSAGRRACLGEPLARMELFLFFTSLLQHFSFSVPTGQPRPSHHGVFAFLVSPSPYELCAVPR

Take `Cc1nn2c(COc3ccc(NC(=O)c4ccccc4)cc3)nnc2c2ccccc12`: the EC50 was 0.854 µM (active) in series [1] and 0.859 µM (active) in series [2]. Take `COc1cc(OC)c(OC)cc1CNc1cc(C)ccc1OC`: the concentration at half-maximal activity (AC50) in series [3] is 7.92 µM (active); in [4] it was 18.1 µM (active); in series [5] it was 47.2 µM (active). As to `C/C=C1\C[N@@+]2(C)CC[C@@]34C(=C(C=O)[C@H]1C[C@H]32)Nc1ccccc14`, the AC50 in [6] was 0.00126 µM (inconclusive); in series [7], 6.31 µM (inconclusive). In the case of `CC(C)c1nccn1Cc1ccc(Cl)cc1Cl`, the AC50 in series [8] (read-out: AC50) is 2 µM (inconclusive); in series [7], 3.16 µM (inconclusive). In the case of `CCNc1ncc2nc(-c3cn(C)c4ccccc34)c(=O)n(C)c2n1`, the AC50 in [9] was 39.8 µM (inconclusive); in series [6], 10 µM (inconclusive); in series [7], 12.6 µM (inconclusive). As to `O=C(c1ccco1)N1CCC[C@@]2(CCN(c3ccncc3)C2)C1`, the results for the AC50 in series [9] and in series [7] were 15.8 µM (inconclusive) and 25.1 µM (inconclusive), respectively. Regarding `COc1ccc(N2CCN(C(=O)CSc3nnc4c(C)cc5cc(C)ccc5n34)CC2)cc1`, in series [10], the CC50 is > 50 µM (active).

Turning to `O=C(Cn1c(C(=O)NCc2ccco2)cc2sccc21)c1ccccc1`, the IC50 in series [11] was 139 µM (active). Turning to `CC(C)=CCc1c(O)ccc(C(=O)Cc2ccccc2)c1O`, the AC50 in series [12] was 3.82 µM (active). `COc1ccccc1C1=NOC(COC(=O)c2ccc([N+](=O)[O-])cc2)C1` (configuration not stated): in series [13], the IC50 is 3.93 µM (active).

As to `CC1CC(C)CN(C(=O)c2cc3cc(Br)cc(Br)c3o2)C1` (configuration not stated), the 50% cytotoxic concentration (CC50) in series [10] is 18.9 µM (active). Regarding `CC1CCCC(NC(=O)C2CCCN2S(=O)(=O)c2cccc3nsnc23)C1C` (configuration not stated), the CC50 in [10] is 23.6 µM (active). As to `COc1ccc(-c2ncc3ccccn23)cc1OC`, the IC50 in series [11] was 126 µM (active).

For the compound `O=C(O)c1cc2c(ccc3ccccc32)[nH]1`, the CC50 in series [10] was 30.9 µM (active). Still for that read-out and setting: to `CCOc1ccccc1NC(=O)Nc1ccc(CC#N)cc1` belongs 28 µM (active). On to `O=C(OCC(=O)C12CC3CC(CC(C3)C1)C2)c1ccccn1`, for which the IC50 in series [13] is 37.8 µM (active).

Take `COC(=O)[C@@H](NC(=O)c1cc(COc2cncc(Cl)c2)on1)c1ccccc1`: in series [13], the IC50 was 5.52 µM (active). As for `Cc1cccc(Oc2ncc(-c3ccc(Cl)cc3)cn2)c1C`, the AC50 in [6] was 25.1 µM (inconclusive); in series [7], 17.8 µM (inconclusive).

Take `CCCCNc1c(-c2ccc(SC(C)CC)cc2)nc2ccccn12` (configuration not stated): the AC50 in series [12] was 4.29 µM (active). Take `CN(c1cccc(Cl)c1)S(=O)(=O)c1cccc(C(=O)NCc2ccncc2)c1`: the values for the concentration at half-maximal activity (AC50) in series [3], in series [4] and in series [5] were 0.664 µM (active), < 0.26 µM (active) and 61.5 µM (active), respectively. On to `Cc1cccc(-c2nc(Nc3cccc(O)c3)c3ccccc3n2)c1`, for which the AC50 in series [12] was 3.88 µM (active). As to `Oc1nc2ccc(Br)cc2c(-c2ccccc2)c1CN1CCOCC1`, the CC50 in [10] is 48.4 µM (active). Take `Cc1ccccc1CN(C)CCc1ccccn1`: the IC50 in [11] is 123 µM (active).

As to `CCOC(=O)c1c(NC(=O)c2nn(CC)cc2Br)sc(C)c1C`, the AC50 in series [4] is 11 µM (active). Consider `O=C(Nc1ccccc1N1CCOCC1)c1cc2c(s1)CCCCC2`, for which the CC50 in [10] was > 50 µM (active). `Cc1cc(C(=O)COc2ccc(Cl)cc2Br)c(C)n1C`: the CC50 in series [10] was > 50 µM (active). For `CCOC(=O)c1sc(NC(=O)Nc2ccccc2Cl)cc1C`, the AC50 in series [12] was 5.37 µM (active). Further, the values for the EC50 in series [14] and in [15] were > 30 µM (not active) and 2.26 µM (active), respectively. In the case of `Cc1cc2c(nc1C)CCCN2C[C@H](C)O/N=C1/[C@H]2O[C@@H]2[C@@H](O)[C@H]2[C@H]1CCn1c(=O)n(-c3ccccc3)c(=O)n12`, the AC50 in [6] is 6.31 µM (inconclusive); in series [7] it was 2.51 µM (inconclusive). Consider `Cc1ccc(S(=O)(=O)N2CCN(c3ncnc4sccc34)CC2)cc1C`, for which the results for the AC50 in series [3], in series [4] and in series [5] were 6.17 µM (active), 3.53 µM (active) and 5.96 µM (active), respectively. As to `O=C(NCc1ccc(Cl)cc1)c1cccc(NC(=O)c2ccccc2)c1`, the AC50 in series [12] was 5.29 µM (active). With `COCC(C)NCc1cccc(C)c1` (configuration not stated), the half-maximal activity concentration (AC50) in [7] was 14.1 µM (inconclusive). The same measure, in the same setting: to `Cc1ccc(N(C(C)C(=O)Nc2cc(Cl)ccc2Oc2ccccc2)S(C)(=O)=O)cc1` (configuration not stated) belongs 15.8 µM (inconclusive). With `N#Cc1ccc(C(c2nnnn2C2CCCC2)N2CCC(Cc3ccccc3)CC2)cc1` (configuration not stated), the AC50 in series [9] was 11.2 µM (inconclusive); in series [7], 10 µM (inconclusive). In the case of `CCc1cc2c(nc1CC)CCN(CC/C(C)=N/OC[C@@H](O)[C@@H]1O[C@@H]3OC(C)(C)O[C@@H]3[C@H]1O)C2`, the concentration at half-maximal activity (AC50) was 6.31 µM (inconclusive) in series [6], 0.0316 µM (inconclusive) in series [8] (read-out: AC50) and 6.31 µM (inconclusive) in series [7]. Take `CC(C)COc1ccc(C2(C#N)CC[N+](C)(C)CC2)cc1.[Br-]`: the AC50 in [6] was 39.8 µM (inconclusive); in series [8], “inconclusive”; in series [7] it was 11.2 µM (inconclusive). Take `COc1ccc(-c2nc(-c3cc([N+](=O)[O-])ccc3C)c(-c3ccccc3)[nH]2)cc1OC`: the CC50 in series [10] is 21.4 µM (active). In the case of `CCN(CC)S(=O)(=O)c1ccc(C(=O)OCn2nnc3ccccc3c2=O)cc1`, the IC50 in series [13] is 17.9 µM (active). For `Cc1ccc(-n2nc3c(N4CCC(C(=O)NCc5cccc(F)c5)CC4)nnc(C)c3c2C)cc1`, in series [10], the CC50 was 32.7 µM (active).

For `COc1c(N2CCN(C(S)=Nc3ccc(F)cc3)C(C)C2)c(F)cc2c(=O)c(C(=O)O)cn(C3CC3)c12` (configuration not stated), the EC50 in series [1] is 4.5 µM (active); in series [2], 5.79 µM (active). With `Cc1cccc(CN(C)CCc2ccccn2)c1`, the figures for the EC50 in [14] and in series [15] were > 30 µM (not active) and 0.517 µM (active), respectively. Besides, the AC50 is 0.355 µM (inconclusive) in series [9] and 2.51 µM (inconclusive) in series [7]. For the compound `c1ncc(-c2ccoc2)c(NC2CC2)n1`, the AC50 in series [8] (read-out: AC50) was 39.8 µM (inconclusive); in series [7], 25.1 µM (inconclusive). As for `O=C(OCC12CC3CC(CC(C3)C1)C2)c1ccc(NCc2cc(O)ccc2O)cc1`, the values for the AC50 in series [3], in series [4] and in [5] were 7.26 µM (active), 3.25 µM (active) and 66.7 µM (active), respectively.

Turning to `Cc1c(C2(O)CCCCC2)[nH]c2cc(C(F)(F)F)ccc12`, the AC50 in series [12] is 7.81 µM (active). For `CCOCCN1CCC(OC(C)=O)C(C)C1` (configuration not stated), the AC50 in series [8] (read-out: AC50) is 3.16 µM (inconclusive); in series [7], 12.6 µM (inconclusive). For `C/C(=N\c1ccccc1C)C1=C(O)SCC1=O`, in series [10], the CC50 is 32.3 µM (active).

Turning to `CCOc1cc(/C=N/NC(=O)CCn2nc(C)cc2C)ccc1O`, the IC50 in series [11] is 61.5 µM (active). As to `O/N=C/c1cc(Cl)ccc1OCc1ccccc1Cl`, in series [12], the AC50 is 4.45 µM (active). Turning to `C[C@]12CCC3C(CC[C@H]4CC(O)CC[C@]34C)C1CC/C2=N/O` (some centres not stated), in series [10], the CC50 was > 50 µM (active).

As to `CC(C)=CCc1c(O)c(CC=C(C)C)c2occ(-c3ccc(O)cc3)c(=O)c2c1O`, in series [12], the AC50 was 2.62 µM (active). Moreover, the results for the EC50 in [1] and in [2] were 2.66 µM (active) and 3.28 µM (active), respectively. `COc1ccccc1N1CCN(CCCCN2C(=O)c3ccccc3C2=O)CC1` [NAN-190]: the AC50 was 31.6 µM (inconclusive) and 1.58 µM (inconclusive) in series [6]; 12.6 µM (inconclusive) and 10 µM (inconclusive) in series [7].

As a reminder, the EC50 is the concentration at which the effect is half-maximal. By AC50 is commonly meant the concentration at which the activity in the assay is half-maximal. As a reminder, the CC50 is the concentration at which the toxic effect on the cells reaches its halfway point. By IC50 is commonly meant the concentration that inhibits the measured activity by half.
